Test results as given in patent US20110076258A1, “METHODS OF MODULATING T CELL- DEPENDENT IMMUNE RESPONSES” (Converge Biotech Inc., priority 2008, published 2011).

Legend:
[1] = test system: mouse model of IBD; assay: IBD model with insufficient number of adoptively transferred Treg cells; type: in vivo
[2] = test system: T cells stimulated by anti-CD3 under Th17 skewing conditions; assay: Th17 skewing conditions (TGFβ and IL-6), Foxp3 and RORγT expression; type: cell-based
Procedure: Treatment with oATP at 100 μM inhibits Th17 differentiation and promotes Foxp3 expression. […] The absolute number of CD4^+CD25^high cells expressing Foxp3 by FACS analysis was increased (FIG. 12B). Moreover, the de-differentiation of sorted CD4^+CD25^high natural Treg cells to the Th17 lineage following stimulation (Koenen et al., Blood 112(6):2340-2352 (2008)) was prevented by oATP at 100 μM (FIG. 12C).

[3] = test system: naïve CD4^+ T cells; assay: IL-2 ELISA in culture supernatants, plate-bound CD3 and CD28 stimulation; type: cell-based, mouse; settings: versus untreated cells, 48 h
Excerpt: An inhibitory effect of oATP on peripheral blood T cell proliferation has been described (Baricordi et al., Blood 87:682-690 (1996)). […] We therefore hypothesize that ATP released from activated T cell is part of an autocrine loop, which plays an essential role in productive T cell activation.

[4] = test system: crt^−/− CD4^+ T cells
[5] = test system: crt^−/− FLC; assay: Graft-versus-host disease-like phenotype of crt^−/− fetal liver chimeras; type: in vivo, mouse
Procedure: Phenotype of crt^−/− FLC before treatment and after daily intravenous treatment with PBS or 6 mM oATP (100 μl) for 2 weeks (see Example 16).
Histopathological evaluation of skin biopsies executed in a blinded fashion. The graphs show selected examples of dramatic results seen with oATP treatment (see Example 16).
Recombinase-deficient Balb/c mice were reconstituted with hematopoietic progenitors from fetal liver of calreticulin (crt)^−/− and +/+E13 embryos (FIG. 21). The phenotype of the resulting crt^−/− fetal liver chimera (FLC), which mimics graft-versus-host disease (GVHD) (see, e.g., Porcellini et al., J Exp Med 203:461-471 (2006)), was assessed at weeks 8, 10 and 12 after transfer and compared to the phenotype of the crt^+/+ FLC at week 12.
crt^+/+ and crt^−/− FLCs received daily intravenous treatment with PBS or 6 mM oATP (100 μL) for two weeks.

[6] = test system: NZB/NZW F1 mice; assay: Systemic lupus erythematosus / glomerulonephritis model; type: in vivo, mouse
Procedure: Graph representing protein concentration in urine from NZB/NZW Fi mice treated either with PBS (control) or oATP. 25-week -old female mice received either PBS or oATP intravenously (3 mM in 100 μl, five days treatment, 2 days break) for 6 weeks (see Example 14). Ten animals received PBS and ten animals received oATP.
Twenty-five week-old NZB/NZW F1 female mice were injected intravenously with either PBS or oATP (3 mM in 100 μl, five days treatment, 2 days break) for six weeks and examined for proteinuria (upper panel) and other indicated parameters (lower panels) (see Example 14). **: P<0.01; ***: P<0.001.
Effector/memory (CD44^+CD62L^−) CD4^+ cells recovered from the spleen of 25 week-old NZB/NZW F1 female mice treated either with PBS or oATP (upper panel); IFN-γ and IL-4 secretion by CD4^+ effector/memory T cells stimulated with plate bound anti-CD3 and anti-CD28 antibodies for 48 h detected by ELISA (lower panels) (see Example 14). **: P<0.01; ***: P<0.001.
Systemic lupus erythematosus (SLE), or its mouse model NZB/NZW F1 (Andrews et al., J. Exp. Med. 148:1198-1215 (1978)), is a chronic inflammatory disease characterized by polyclonal B cell activation with subsequent hypergammaglobulinemia and organ injury caused by immune complex deposits. Because CD4^+ T cells play a crucial role in the onset and propagation of the disease, we analyzed whether oATP treatment might ameliorate disease symptoms. Female NZB/NZW F1 mice at 25 weeks old (when most animals display proteinuria) received either PBS or oATP intravenously (3 mM in 100 μl, five days treatment, 2 days break) for 6 weeks. The proteinuria values were measured before the first treatment and at regular intervals after three weeks of oATP administration. […] Restimulation of sorted effector/memory T cells led to lower levels of IL-4 and IFNγ secretion in cells derived from oATP treated animals (18. 16, lower panels).

[7] = Th17 skewing conditions, oATP 100 μM

## Nc1ncnc2c1ncn2[C@@H](C=O)O[C@@H](C=O)COP(=O)(O)OP(=O)(O)OP(=O)(O)O [oATP]
[1]; day 28, daily 100 μl of 3 mM oATP i.v. from day 14
  Foxp3 expression in Treg cells: increased
[1]; mouse, in vivo
  bowel inflammation: no signs of bowel inflammation
  effector/memory T cells in mesenteric lymph nodes: reduced counts
  ratio of Treg/EM cells in mesenteric lymph nodes: not significantly changed
  spleen and mesenteric lymph nodes size: no increase
[2]; Th17 skewing conditions
  absolute number of CD4^+CD25^high cells expressing Foxp3 (FACS): increased
[2]; [7]
  expression of Foxp3 (quantitative RT-PCR): gradually increased
  expression of RORγT (quantitative RT-PCR): suppressing
[2]; oATP 100 μM
  Th17 differentiation: inhibits
  de-differentiation of sorted CD4^+CD25^high natural Treg cells to the Th17 lineage: prevented
[3]
  IL-2 in the cell culture supernatant: significant reduction
[4]
  cellular damage due to toxicity, PI staining versus untreated: did not reveal any difference
[5]; blinded
  histopathological evaluation of skin biopsies (inflammation and epidermal hyperplasia): histological improvement
[5]; daily i.v. 6 mM oATP (100 μL) for two weeks
  blepharitis: dramatically ameliorated
[6]; 3 mM in 100 μl i.v., five days treatment, 2 days break, 6 weeks
  proteinuria levels: remained similar to pre-treatment levels
[6]; anti-CD3 and anti-CD28, 48 h, ELISA
  IL-4 and IFNγ secretion of restimulated sorted effector/memory T cells: lower levels
[6]; mouse, in vivo
  Histopathological scoring of kidneys: glomerular proliferation, lymphomonocytic infiltration and immune complex deposition: significant reduction
  number of effector/memory T cells in spleen and lymph nodes: significantly reduced
